Assay results reported in US20080188554A1, “METHODS OF TREATING AVIAN HYPERTENSION” (Regents of the University of California Office of …, priority 2006, published 2008).
Marks after values point to notes of the source that are not given here.

What was measured:
sEH = biological target: T1, sEH (Homo sapiens, UniProt P34913); assay: sEH inhibition, general statements on earlier tests; format: biochemical; settings: statement in words, no method given
T1 sequence (P34913 1-555): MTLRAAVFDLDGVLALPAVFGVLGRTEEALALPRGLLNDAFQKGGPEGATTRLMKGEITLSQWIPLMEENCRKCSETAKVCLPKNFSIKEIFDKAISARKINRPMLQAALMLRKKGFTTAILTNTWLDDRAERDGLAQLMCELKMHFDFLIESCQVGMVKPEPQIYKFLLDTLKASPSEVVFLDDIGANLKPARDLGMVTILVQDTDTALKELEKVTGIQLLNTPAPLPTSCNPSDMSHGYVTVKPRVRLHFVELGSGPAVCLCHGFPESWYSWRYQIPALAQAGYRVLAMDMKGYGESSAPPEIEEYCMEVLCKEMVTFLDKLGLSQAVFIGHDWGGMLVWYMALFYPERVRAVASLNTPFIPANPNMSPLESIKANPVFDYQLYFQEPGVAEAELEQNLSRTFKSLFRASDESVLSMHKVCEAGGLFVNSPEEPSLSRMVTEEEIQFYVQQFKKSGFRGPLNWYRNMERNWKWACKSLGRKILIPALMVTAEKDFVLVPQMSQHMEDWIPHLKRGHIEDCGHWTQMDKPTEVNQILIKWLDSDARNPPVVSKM

mouse sEH = biological target: T2, mouse sEH (Mus musculus, UniProt P34914); settings: compound as substrate, from Morisseau 2000; cited from earlier work
T2 sequence (P34914 1-554): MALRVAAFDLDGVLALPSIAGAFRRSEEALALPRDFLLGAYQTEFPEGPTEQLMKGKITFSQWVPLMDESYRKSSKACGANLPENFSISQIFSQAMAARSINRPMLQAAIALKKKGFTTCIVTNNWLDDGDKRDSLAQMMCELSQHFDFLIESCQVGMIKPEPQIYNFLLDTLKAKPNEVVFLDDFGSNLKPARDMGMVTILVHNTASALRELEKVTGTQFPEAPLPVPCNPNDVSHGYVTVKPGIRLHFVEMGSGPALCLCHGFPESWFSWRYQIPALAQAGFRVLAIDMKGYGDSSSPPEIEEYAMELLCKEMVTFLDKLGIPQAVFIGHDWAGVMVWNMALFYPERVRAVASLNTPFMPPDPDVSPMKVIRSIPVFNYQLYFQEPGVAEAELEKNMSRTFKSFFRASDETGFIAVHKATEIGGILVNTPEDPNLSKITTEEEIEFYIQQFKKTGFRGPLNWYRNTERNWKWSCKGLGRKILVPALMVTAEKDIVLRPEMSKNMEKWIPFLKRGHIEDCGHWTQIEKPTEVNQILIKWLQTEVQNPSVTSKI

Recombinant chicken sEH = Recombinant chicken sEH (Gallus gallus, UniProt Q45QT1); assay: Non-radioactive epoxide hydrolase assay (HPLC-MS/MS), specific activity of substrates; format: biochemical; settings: compound as substrate, 50 μM, 30° C., 10 min
Description: The trans-9,10-epoxystearate was purchased (Sigma-Aldrich). A 5 mM solution of each substrate was made in ethanol for the EETs and methanol for the epoxystearate. The substrate solution (1 μL) was added to 100 μL of enzyme preparation in sodium phosphate buffer (0.1 M, pH 7.4) containing 0.1 mg/mL of BSA ([S]final=50 μM). The enzyme was incubated with the substrate at 30° C. for 10 min, and the reaction quenched by addition of 400 μL of methanol. The products were analyzed by HPLC-MS/MS as previously described (Newman, J. W. et al., J. Lipid Res. 43:1563-1578 (2002)) with the following exceptions. A 2.0×20 mm, 3-μm Luna C18 Mercury MS column (Phenomenex, Torrance, Calif.) was used with a 350 μL/min isocratic flow of […] (vol/vol/vol) acetonitrile/water/methanol with 0.1% glacial acetic acid for 2.5 min. Assays were performed in triplicate.

Sequence of Recombinant chicken sEH (Q45QT1 entry or part of it): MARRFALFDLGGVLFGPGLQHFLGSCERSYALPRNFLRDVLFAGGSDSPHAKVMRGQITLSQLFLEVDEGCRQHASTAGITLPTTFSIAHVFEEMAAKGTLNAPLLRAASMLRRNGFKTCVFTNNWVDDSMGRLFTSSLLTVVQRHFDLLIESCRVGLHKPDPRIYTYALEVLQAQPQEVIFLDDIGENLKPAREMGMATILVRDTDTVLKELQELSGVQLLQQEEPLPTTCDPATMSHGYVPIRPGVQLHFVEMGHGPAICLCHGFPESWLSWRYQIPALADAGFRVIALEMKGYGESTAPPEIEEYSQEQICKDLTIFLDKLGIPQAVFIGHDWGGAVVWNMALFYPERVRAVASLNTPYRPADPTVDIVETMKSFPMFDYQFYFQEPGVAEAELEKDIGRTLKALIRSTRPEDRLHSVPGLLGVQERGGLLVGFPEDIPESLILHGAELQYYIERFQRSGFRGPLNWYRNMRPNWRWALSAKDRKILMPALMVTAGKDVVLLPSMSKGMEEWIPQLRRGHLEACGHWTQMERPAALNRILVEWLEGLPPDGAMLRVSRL

Activity as inhibitor of sEH (sEH)	Specific activity (Recombinant chicken sEH)	Compound	Specific activity (mouse sEH)
particularly high activity	–	CCCCCCCCCCCCNC(=O)NC12CC3CC(CC(C3)C1)C2 [ADU, N-Adamantyl-N′-dodecyl urea]	–
–	3.1 ± 0.2 nmol/min/mg	CCCCCCCCC1OC1CCCCCCCC(=O)O (stereo not drawn) [cis-9,10-epoxystearic acid]	1139 ± 34* nmol · min^−1 · mg^−1
